Assay results published in PMC5432571 (Frontiers in Molecular Neuroscience, 2017).
Substitutions are numbered along the chain they refer to. Where two headings read alike, the source gives them in different places.

Experiments:
[1] = target: T1, homomeric α1 GlyR (Homo sapiens, UniProt P23415); experiment: Whole-cell patch-clamp of glycine-induced currents, α1 GlyR expressed in CHO cells; format: cell-based; settings: for inhibition at 30 µM / inhibition at 100 µM / inhibition at 300 µM: CHO, long protocol, read-out: inhibition of α1GlyR-mediated currents; for inhibition at 30 µM: NFA 30 μM; for inhibition at 100 µM: NFA 100 μM; for inhibition at 300 µM: NFA 300 μM
T1 construct: expressed in transfected cells; host or cells: CHO cells
T1 sequence (P23415 29-449 isoform P23415-2 limits assumed): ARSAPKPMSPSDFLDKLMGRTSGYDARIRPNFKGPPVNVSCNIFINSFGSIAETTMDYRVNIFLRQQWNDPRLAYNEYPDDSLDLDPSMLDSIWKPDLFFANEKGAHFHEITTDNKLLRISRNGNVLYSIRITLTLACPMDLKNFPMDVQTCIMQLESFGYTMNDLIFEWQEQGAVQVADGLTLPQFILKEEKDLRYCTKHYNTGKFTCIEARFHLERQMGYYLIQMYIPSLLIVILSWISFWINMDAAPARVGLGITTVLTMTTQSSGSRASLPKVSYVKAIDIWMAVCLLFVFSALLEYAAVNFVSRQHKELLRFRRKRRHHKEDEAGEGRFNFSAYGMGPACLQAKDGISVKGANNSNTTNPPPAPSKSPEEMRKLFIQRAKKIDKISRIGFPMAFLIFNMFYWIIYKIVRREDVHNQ
Description: (§1) The experiments were carried out on cultured Chinese hamster ovary (CHO) cells obtained from the American Type Tissue Culture Collection (ATCC, Molsheim, France) that were maintained in culture conditions as previously described (Mukhtarov et al., [2013]; Maleeva et al., [2015]).
(§2) One day before transfection, cells were plated on the cover slips (12 mm in diameter) and placed inside 35-mm cell culture dishes with 2 ml of medium. Transfection was performed using the Lipofectamine 3000 protocol (Life Technology, USA). To facilitate identification of transfected cells a green fluorescent protein (GFP) was added to the transfection mixture. For expression of functional heteromeric receptors, cells were simultaneously transfected with cDNAs of α and β subunits in the ratio 1:10. Three hours after the initial exposure of cells to the cDNAs the culture medium was replaced with that containing strychnine (1 μM), which prevents spontaneous activation of GlyRs. Electrophysiological recordings were performed in the fluorescent cells 24–72 h after transfection.
(§3) Whole-cell and outside-out recordings were performed at room temperature (20–25°C) using an EPC-9 amplifier (HEKA Elektronik, Germany). Cells were continuously superfused with external solution containing (mM): NaCl 140, CaCl2 2, KCl 2.8, MgCl2 4, HEPES 20, glucose 10; pH 7.4; 320–330 mOsm. Intracellular solution used for filling recording patch pipettes contained (mM): CsCl 140, CaCl2 6, MgCl2 2, MgATP 2, NaGTP 0.4, HEPES/CsOH 10, BAPTA (tetrapotassium salt) 2; pH 7.3; 290 mOsm. Two different protocols of solutions application were used in this study. […] A “ramp protocol” implies the gradual change of Vhold alternately from −80 to +80 mV and from +80 to −80 mV during 1 s, Vhold was fixed at −80 or +80 mV at the beginning and at the end of the ramp for 500 ms (Figure 2B).
(§4) Recording pipettes were pulled from borosilicate glass capillaries (Harvard Apparatus Ltd, USA) and had resistances of 5–10 MOhm. For the rapid replacement of the solutions, the fast application system was used. Three parallel rectangular tubes (100 × 100 μm) were positioned 40–50 μm above the recorded cell. The movement of the tubes was controlled by a computer-driven fast exchange system (SF 77A Perfusion Fast-Step, Warner, USA) allowing a 10–90% solution exchange in 3–5 ms, as measured by open electrode controls (1/10 external solution/water). Cells with low input resistance (<150 MOhm) and a rapid run-down (>30% with repetitive application) were excluded from analysis.
(§5) Electrophysiological recordings were performed using PatchMaster (HEKA Electronic, Germany) software.
(§6) The fractional electrical distance from the external side of the membrane (δ) at which bound NFA blocked the current was calculated using the Woodhull equation: IC50(V)=IC50(0) exp (−δFV/RT), where IC50(V) is IC50 at the given membrane potential, IC50(0) – at 0 mV, V – membrane potential and F, R, T have their usual meanings. δ was determined from a plot of IC50 values against membrane potential.

[2] = target: T2, G254A-α1 GlyR (Homo sapiens, UniProt P23415, G282A); experiment: Whole-cell patch-clamp of glycine-induced currents, G254A-α1 GlyR mutant expressed in CHO cells; format: cell-based; settings: for inhibition at 30 µM / inhibition at 100 µM / inhibition at 300 µM: CHO, long application protocol, read-out: inhibition of G254A-α1 GlyR mediated currents; for inhibition at 30 µM: NFA 30 μM; for inhibition at 100 µM: NFA 100 μM; for inhibition at 300 µM: NFA 300 μM
T2 construct: expressed in transfected cells; host or cells: CHO cells
T2 sequence (P23415 29-449 isoform P23415-2 G282A limits assumed): T1 sequence (P23415 29-449 isoform P23415-2 limits assumed) with G254A
Description: as §1, §2, §3, §4, §5, §6

[3] = +30 mV, glycine 30 μM, representative, read-out: NFA IC50 (representative IC50 curve)
[4] = +30 mV, glycine 100 μM, representative, read-out: NFA IC50 (representative IC50 curve)
[5] = +80 mV, glycine 30 μM, ramp protocol, mean ± SEM, read-out: IC50 of NFA
[6] = +80 mV, glycine 30 μM, representative, read-out: NFA IC50 (representative IC50 curve)
[7] = +80 mV, glycine 100 μM, representative, read-out: NFA IC50 (representative IC50 curve)
[8] = membrane potential 30 mV, glycine 30 μM
[9] = membrane potential 50 mV, glycine 30 μM
[10] = membrane potential 80 mV, glycine 30 μM
[11] = membrane potential −50 mV, glycine 30 μM
[12] = membrane potential −70 mV, glycine 30 μM
[13] = membrane potential −80 mV, glycine 30 μM
[14] = −30 mV, glycine 30 μM, representative, read-out: NFA IC50 (representative IC50 curve)
[15] = −30 mV, glycine 100 μM, representative, read-out: NFA IC50 (representative IC50 curve)
[16] = −80 mV, glycine 30 μM, representative, read-out: NFA IC50 (representative IC50 curve)
[17] = −80 mV, glycine 100 μM, representative, read-out: NFA IC50 (representative IC50 curve)

Structure (SMILES): O=C(O)c1cccnc1Nc1cccc(C(F)(F)F)c1 [NFA, Niflumic acid]
- IC50 [1, 3]: 218 µM
- IC50 [1, 4]: 107 µM
- IC50 [1, 5]: 197 ± 18 µM
- IC50 [1, 6]: 178 µM
- IC50 ([1]; +80 mV, glycine 100 μM, ramp protocol, mean ± SEM, read-out: IC50 of NFA): 90 ± 8 µM
- IC50 [1, 7]: 94 µM
- inhibition at 30 µM ([1]; Vhold +30 mV, glycine 30 μM): 16 ± 7%
- inhibition at 30 µM ([1]; Vhold −30 mV, glycine 30 μM): 3 ± 4%
- inhibition at 100 µM ([1]; Vhold +30 mV, glycine 30 μM): 43 ± 11%
- inhibition at 100 µM ([1]; Vhold −30 mV, glycine 30 μM): 16 ± 6%
- inhibition at 300 µM ([1]; Vhold +30 mV, glycine 30 μM): 75 ± 4%
- inhibition at 300 µM ([1]; Vhold −30 mV, glycine 30 μM): 48 ± 9%
- Hill coefficient (nH) of NFA interaction ([1]; glycine 30 μM): 1.5 ± 0.11
- decrease of IC50 at +80 mV versus −80 mV ([1]; glycine 100 μM): about 3 fold
- Hill coefficient (nH) of NFA interaction [1, 8]: 1.87 ± 0.02
- Hill coefficient (nH) of NFA interaction [1, 9]: 1.55 ± 0.08
- Hill coefficient (nH) of NFA interaction [1, 10]: 1.28 ± 0.07
- Hill coefficient (nH) of NFA interaction [1, 11]: 1.7 ± 0.08
- Hill coefficient (nH) of NFA interaction [1, 12]: 1.65 ± 0.08
- Hill coefficient (nH) of NFA interaction [1, 13]: 1.56 ± 0.07
- Hill coefficient (nH) of NFA inhibitory action ([1]; overall statement in discussion): ~1.5
- IC50 [1, 14]: 256 µM
- IC50 [1, 15]: 171 µM
- IC50 ([1]; −80 mV, glycine 30 μM, ramp protocol, mean ± SEM, read-out: IC50 of NFA): 315 ± 30 µM
- IC50 [1, 16]: 272 µM
- IC50 ([1]; −80 mV, glycine 100 μM, ramp protocol, mean ± SEM, read-out: IC50 of NFA): 270 ± 26 µM
- IC50 [1, 17]: 209 µM
- IC50 [2, 3]: 92 µM
- IC50 [2, 4]: 106 µM
- IC50 [2, 5]: 64 ± 10 µM
- IC50 [2, 6]: 68 µM
- IC50 [2, 7]: 57 µM
- inhibition at 30 µM ([2]; Vhold +30 mV, glycine 30 μM): 23 ± 7%
- inhibition at 30 µM ([2]; Vhold −30 mV, glycine 30 μM): 22 ± 4%
- inhibition at 100 µM ([2]; Vhold +30 mV, glycine 30 μM): 43 ± 10%
- inhibition at 100 µM ([2]; Vhold −30 mV, glycine 30 μM): 34 ± 6%
- inhibition at 300 µM ([2]; Vhold +30 mV, glycine 30 μM): 76 ± 4%
- inhibition at 300 µM ([2]; Vhold −30 mV, glycine 30 μM): 52 ± 11%
- IC50 ([2]; MP +80 mV, increased agonist concentration (glycine 100 μM), mean ± SEM, read-out: IC50 of NFA): 58 ± 8 µM
- IC50 ([2]; at negative potentials, glycine 30 μM, ramp protocol, mean ± SEM, read-out: IC50 of NFA): 257 ± 25 µM
- level of the NFA binding site from the extracellular side ([2]; both examined agonist concentrations, Woodhull analysis): ~ 30%
- Fractional electrical distance (δ) from the extracellular side of the membrane ([2]; glycine 30 μM, Woodhull analysis): 0.37 ± 0.04 (n = 9)
- Fractional electrical distance (δ) from the extracellular side of the membrane ([2]; glycine 100 μM, Woodhull analysis): 0.30 ± 0.04 (n = 7)
- Hill coefficient (nH) of NFA interaction [2, 8]: 1.3 ± 0.08
- Hill coefficient (nH) of NFA interaction [2, 9]: 1.36 ± 0.11
- Hill coefficient (nH) of NFA interaction ([2]; membrane potential 70 mV, glycine 30 μM): 1.26 ± 0.1
- Hill coefficient (nH) of NFA interaction [2, 10]: 1.22 ± 0.09
- Hill coefficient (nH) of NFA interaction [2, 11]: 1.37 ± 0.18
- Hill coefficient (nH) of NFA interaction [2, 12]: 1.34 ± 0.1
- Hill coefficient (nH) of NFA interaction [2, 13]: 1.46 ± 0.16
- IC50 [2, 14]: 185 µM
- IC50 [2, 15]: 190 µM
- IC50 [2, 16]: 230 µM
- IC50 [2, 17]: 260 µM
